Laboratory results: article PMC9668830, “Identification of fungal lignocellulose-degrading biocatalysts secreted by Phanerochaete chrysosporium via activity-based protein profiling” (Communications Biology, 2022)

How the values were obtained:
[1] = molecular target: T1, WP_074995790 (Streptomyces misionensis, UniProt A0A1H5HEE9); test: pNP release at […] nm; format: biochemical; conditions: 200 µM substrate, phosphate citrate buffer; only specific activity reported
T1 construct: gene SAMN04490357_7452; synthetic gene without secretion signal, pET20b, C-terminal His-tag, E. coli Rosetta DE3, Ni-IDA purified
T1 sequence (A0A1H5HEE9 63-752): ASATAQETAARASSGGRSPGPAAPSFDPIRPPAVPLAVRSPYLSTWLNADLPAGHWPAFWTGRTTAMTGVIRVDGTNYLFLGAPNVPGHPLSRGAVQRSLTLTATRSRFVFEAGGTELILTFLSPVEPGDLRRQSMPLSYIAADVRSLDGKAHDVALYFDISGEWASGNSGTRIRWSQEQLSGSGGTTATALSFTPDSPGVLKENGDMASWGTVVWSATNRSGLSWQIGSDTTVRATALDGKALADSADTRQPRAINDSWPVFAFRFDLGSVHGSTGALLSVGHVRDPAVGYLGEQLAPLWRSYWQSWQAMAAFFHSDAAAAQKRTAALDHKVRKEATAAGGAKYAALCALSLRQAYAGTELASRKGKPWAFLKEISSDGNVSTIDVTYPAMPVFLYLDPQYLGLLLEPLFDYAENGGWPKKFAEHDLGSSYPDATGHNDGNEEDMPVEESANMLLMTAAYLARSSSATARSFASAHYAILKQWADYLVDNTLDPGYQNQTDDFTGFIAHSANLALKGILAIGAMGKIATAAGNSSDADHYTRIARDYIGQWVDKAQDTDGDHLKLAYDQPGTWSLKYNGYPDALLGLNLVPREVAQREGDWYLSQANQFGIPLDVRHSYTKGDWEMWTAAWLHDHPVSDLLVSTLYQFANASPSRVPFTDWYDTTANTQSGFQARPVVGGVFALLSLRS

[2] = test system: T2, Phchr2|2915237; test: discontinuous pNP release at […] nm; format: biochemical, Phanerodontia chrysosporium; conditions: phosphate citrate buffer; pH and temperature of the kinetics not restated (optimum pH 5, 60 °C)
T2 construct: gene phchr2_2915237; synthetic gene from JGI model, secreted by Aspergillus oryzae, C-terminal 6xHis tag kept, Ni-purified

[3] = test system: T3, Phchr2|126075; test: continuous pNP release at […] nm, filtered K. lactis culture supernatant; format: biochemical, Phanerodontia chrysosporium; conditions: 50 mM TRIS pH 8, 20 mM KCl, 40 °C
T3 construct: gene phchr2_126075; filtered culture supernatant assayed

Row | Km [2] | Compound | other results
1 | – | O=[N+]([O-])c1ccc(O[C@@H]2O[C@H](CO)[C@H](O)[C@H](O)[C@H]2O)cc1 [pNP-Gal] | pNP release at 410 nm [1]: we were able to detect a weak β-galactosidase activity
2 | 1820 µM | O=[N+]([O-])c1ccc(O[C@@H]2O[C@H](CO)[C@@H](O)[C@H](O)[C@H]2O)cc1 [pNP-Glc] | –
3 | 6980 µM | O=[N+]([O-])c1ccc(O[C@@H]2OC[C@@H](O)[C@H](O)[C@H]2O)cc1 [pNP-Xyl] | –
4 | – | CC(=O)Oc1ccc([N+](=O)[O-])cc1 [pNP-acetate] | Km [3]: 670 µM
